Experimental data taken from paper PMC6520918, “Antiproliferative Effects of Hop-derived Prenylflavonoids and Their Influence on the Efficacy of Oxaliplatine, 5-fluorouracil and Irinotecan in Human ColorectalC Cells” (Nutrients, 2019).

Tests used:
[1] = test system: SW620 cells; assay: Neutral red uptake (NRU) cell viability assay, 72 h; assay type: cell-based, human
Text: (§1) The prenylflavonoids and NAR were pre-dissolved in DMSO, while 5-FU, IRT and OxPt were pre-dissolved in distilled water. […] During screening for antiproliferative effects, SW480, SW620, and CaCo-2 were exposed to various concentrations of individual compounds in culture medium: XH, IXH, 6-PN and 8-PN (1–100 μmol/L), NAR (1–200 µmol/L), 5-FU and IRT (0.1–100 µmol/L), and OxPt (0.1–25 µmol/L). The cells cultured in medium with 0.1% DMSO or 0.2% DMSO (for 8-PN only) were used as untreated control samples. In the case of OxPt, the untreated control sample contained cells cultured in medium only. The cells treated with 10% DMSO served as a positive control. Neutral red uptake (NRU) assay was used to determine the number of viable cells after 72 h of exposition. The effect of prenylflavonoids and NAR on 5-FU, IRT or OxPt efficacy was evaluated using CalcuSyn (ver. 1.1) software.
(§2) In the NRU assay, the cells were cultured in 96-well plates (SW480 and SW620: 2500 cells/well; CaCo-2 cells: 200 cells/well) and exposed to the tested compounds for 72 h. Thereafter, the medium was removed and 100 μL of neutral red-containing medium was added into each well and the plates were incubated at 37 °C for an additional 3 h. Then the cells were washed with 100 μL of PBS and fixed in a solution of 0.5% formaldehyde/1% calcium chloride for 15 minutes. The neutral red dye was extracted from the viable cells with a solvent (50% ethanol/1% acetic acid) by shaking for 30 min at room temperature. The absorbance of solubilized dye was measured using the spectrophotometer Infinite M200 (Tecan, Männedorf, Switzerland) at 540 nm. Each sample was assayed in six parallels and three independent experiments were performed. The viabilities of treated cells were expressed as a percentage of untreated controls (100%).
(§3) All calculations were done using Microsoft Excel and GraphPad Prism 7.03 (GraphPad Software, La Jolla, CA, USA). All values were expressed as mean ± S.D. of a given number of experiments. Statistical significance (evaluated using a one-way ANOVA with Dunett’s test) was acceptable to a level of p < 0.05. The concentration inducing a 50% decrease of cell viability as compared to control (IC50) was calculated using GraphPad Prism 7.03—nonlinear regression.

[2] = test system: SW480 cells; assay: as above; assay type: cell-based, human; conditions: SW480, 72 h of exposition
Text: as §1, §2, §3

[3] = test system: proliferating CaCo-2 cells; assay: as above; assay type: cell-based; conditions: Homo sapiens, CaCo-2 proliferating, 72 h of exposition
Protocol: (§4) The CaCo-2 cell line was cultured in EMEM medium supplemented with 10% heat-inactivated FBS, 1% non-essential amino acids, 1% glutamine, and 0.5% penicillin/streptomycin. The cells were grown in 96-well plates for 3 (proliferating cells) and 21 (differentiated cells) days in a humidified atmosphere containing 5% CO2 at 37 °C and subcultured every 3 days.
as §1, §2, §3

[4] = test system: differentiated CaCo-2 cells; assay: as above; assay type: cell-based; conditions: Homo sapiens, CaCo-2 differentiated, 72 h of exposition
Protocol: as §4, §1, §2, §3

[5] = test system: SW620 cells; assay: Cellular ROS formation (H2DCF-DA oxidation); assay type: cell-based, human; conditions: for ROS production vs control: SW620, compound alone at its IC50, 0.5-24 h incubation
Protocol: To assess ROS generation in SW620 cells, a measurement of 2′,7′-dichlorodihydrofluorescein-diacetate (H2DCF-DA) oxidation was used. Cells (seeded in a 96-well plate at a density of 2500 cells/well) were washed with PBS buffer and incubated with 100 μL of 5 μM H2DCF-DA in Hank’s balanced salt solution (HBSS). […] Finally, fluorescence intensity was measured at the excitation and emission wavelengths of 485 nm/525 nm for 50 min at 37 °C using the microplate reader Infinite M200 (Tecan, Männedorf, Switzerland). The cells incubated in HBSS with DMSO only (as a solvent) were used as untreated control samples, while those incubated in the presence of 3% H2O2 were used as a positive control.
As is generally accepted, cancer cells generate more ROS than do normal cells and at the same time, they are sensitive to the effect of agents which augment oxidative stress and thus push these stressed cells beyond their limit. Therefore, the pro-oxidative effect of prenylflavonoids and NAR was tested in the SW620 cells in order to elucidate the observed antiproliferative effects of these compounds. […] ROS production was measured in the SW620 cells incubated with prenylflavonoids or NAR at a concentration equal to their IC50 using a DCFH-DA assay. ROS production was monitored during 24-hour incubation at several time points (0.5, 1, 4, 8, and 24 h).
(§5) Further, we decided to determine the influence of combinations of the studied flavonoids with cytostatics on ROS formation and the activity of caspases in SW620 cells. Combination effects of flavonoids and cytostatics were investigated at equipotent concentrations of the IC50 values for each compound. ROS production was monitored using a DCFH-DA assay at several time points (0.5, 1, 4, 8, and 24 h) during a 24-hour incubation. The activities of caspases-8, -9, and -3/7 were assessed using a luminescence assay kit at 4, 8, and 24 h of incubation.

[6] = test system: caspases-3/7 in SW620 cells; assay: Caspase-Glo assay, effector caspases-3/7 activity; assay type: cell-based, human; conditions: for Caspase-3/7 activity, combination with 5-FU / Caspase-3/7 activity, combination with OxPt / Caspase-3/7 activity, combination with IRT: SW620, 24-hour incubation, compared to cytostatic alone; for Induction of caspases-3/7 activity: SW620, compound at IC50, 24-h exposure
Protocol: (§6) The activities of initiator caspases-8 and -9 and effector caspases-3/7 were assayed using Caspase-Glo Assays (Promega, Madison, USA). The SW620 cells (seeded in a […]) were cultivated in 12-well plates. […] The untreated control cells were incubated in medium containing only 0.1% DMSO. The lysates were collected into microtubes. Caspase-8, Caspase-9 and Caspases-3/7 reagents were prepared according to the manufacturer’s instructions. The lysates (25 μL in each well) were transferred into a white-walled 384-well-plate for the luminometer, at which point 25 μL of Caspase-8 or Caspase-9 or Caspases-3/7 reagents were added to each well. The plate was gently mixed for 30 seconds and then incubated for 30 minutes at room temperature. The luminescence was measured using the luminometer Infinite M200 (Tecan, Männedorf, Switzerland).
(§7) In order to determine whether the observed antiproliferative activity of the prenylflavonoids and naringenin could be explained at least in part by the induction of apoptosis, the activities of initiator (caspase-8 and caspase-9) as well as effector caspases (caspases-3/7) were assessed in the SW620 cells, which were exposed to the studied compounds for 4, 8, and 24 h, with the activities of the caspases measured using a luminescence assay.
as §5

[7] = test system: caspase-9 in SW620 cells; assay: Caspase-Glo assay, initiator caspase-9 activity; assay type: cell-based, human
Protocol: as §6, §7, §5

[8] = test system: caspase-8 in SW620 cells; assay: Caspase-Glo assay, initiator caspase-8 activity; assay type: cell-based, human
Protocol: as §6, §7, §5

[9] = test system: colorectal cancer cell lines SW480, SW620 and CaCo-2; assay: Antiproliferative effect (NRU assay) across colorectal cancer cell lines; assay type: cell-based; conditions: Homo sapiens; proliferating colon cancer cells (SW480, SW620, CaCo-2), 72 h; read-out: IC50 range over cell lines
Text: as §1, with “Neutral red uptake (NRU) assay was used to determine the number of viable cells after 72 h of exposition.” left out
In the NRU assay, the cells were cultured in 96-well plates (SW480 and SW620: 2500 cells/well; CaCo-2 cells: 200 cells/well) and exposed to the tested compounds for 72 h. […] The absorbance of solubilized dye was measured using the spectrophotometer Infinite M200 (Tecan, Männedorf, Switzerland) at 540 nm. […] The viabilities of treated cells were expressed as a percentage of untreated controls (100%).
All calculations were done using Microsoft Excel and GraphPad Prism 7.03 (GraphPad Software, La Jolla, CA, USA). All values were expressed as mean ± S.D. of a given number of experiments. […]

[10] = Homo sapiens, SW-620, SW620, 72 h of exposition
[11] = SW620, 4-hour incubation, compared to cytostatic alone
[12] = SW620, 4-h incubation, compared to cytostatic alone
[13] = SW620, combination with 5-FU, OxPt or IRT

SMILES | IC50 [1, 10] | IC50 ([2]; Homo sapiens) | IC50 [3] | IC50 [4] | ROS production vs control [5] | Caspase-3/7 activity, combination with 5-FU [6] | also measured
O=c1[nH]cc(F)c(=O)[nH]1 [5-FU, 5-fluorouracil] | 34.9 µM | 22.6 µM |  |  |  |  | 
CC(C)=CCc1c(O)cc2c(c1O)C(=O)C[C@@H](c1ccc(O)cc1)O2 [6-PN, 6-prenylnaringenin] | 13.7 µM | 14.8 µM | 24 µM | 61.9 µM | initially elevated ROS levels in cells and then surprisingly displayed a strong antioxidant effect at the later intervals |  | 
CC(C)=CCc1c(O)cc(O)c2c1O[C@H](c1ccc(O)cc1)CC2=O [8-PN, 8-prenylnaringenin] | 24.9 µM | 56.3 µM | 48.9 µM | > 100 µM | initially elevated ROS levels in cells and then surprisingly displayed a strong antioxidant effect at the later intervals | marked increase | Caspase-3/7 activity, combination with OxPt [6]: marked increase; Induction of caspases-3/7 activity ([6]; vs untreated control): 44.7%; Caspase-9 activity, combination with IRT [7, 11]: more potent than the respective cytostatics alone; Caspase-9 activity, combination with OxPt [7, 11]: more potent than the respective cytostatics alone; Caspase-8 activity, combination with IRT [8, 12]: significantly increased; Caspase-8 activity, combination with OxPt [8, 12]: significantly increased
CCc1c2c(nc3ccc(OC(=O)N4CCC(N5CCCCC5)CC4)cc13)-c1cc3c(c(=O)n1C2)COC(=O)[C@]3(O)CC [IRT, irinotecan] | 25.4 µM | 1.7 µM |  |  |  |  | 
COc1cc(O)c(CC=C(C)C)c2c1C(=O)CC(c1ccc(O)cc1)O2 (centres unmarked) [IXH, isoxanthohumol] | 43.7 µM | 40.4 µM | 47 µM | > 100 µM | strong pro-oxidative effect within the entire 24-hour incubation | marked increase | Caspase-3/7 activity, combination with IRT [6]: marked increase; Caspase-3/7 activity, combination with OxPt [6]: marked increase; Induction of caspases-3/7 activity ([6]; vs untreated control): 50.5%; Caspase-9 activity, combination with 5-FU [7, 11]: more potent than the respective cytostatics alone; Caspase-8 activity, combination with 5-FU [8, 12]: significantly increased; Caspase-8 activity, combination with OxPt [8, 12]: significantly increased
O=C1C[C@@H](c2ccc(O)cc2)Oc2cc(O)cc(O)c21 [NAR, naringenin, reference compound] | > 200 µM | > 200 µM |  |  | only a mild pro-oxidative effect |  | Suppression of effector caspases (3/7) activity, combined with all the cytostatics ([6]; SW620, combination with 5-FU, OxPt or IRT, all time intervals): up to 61.4%; Inhibition of caspases-3/7 ([6]; SW620, compound alone, 4, 8 and 24 h, vs untreated control): up to 52.7%; Decrease in caspase-9 activity ([7]; SW620, 4 h of exposure, vs untreated control): 19.7%; Caspase-9 activity, combined with all the cytostatics [7, 13]: marked induction; Caspase-8 activity, combined with all the cytostatics [8, 13]: marked induction; ROS formation, combination with OxPt ([5]; SW620, flavonoid + OxPt at IC50 concentrations, all time points, vs control and flavonoid alone): feeble yet significant (p < 0.05) increase in ROS formation; ROS formation, combination with IRI ([5]; SW620, flavonoid + irinotecan at IC50 concentrations, all time points, vs control and flavonoid alone): feeble yet significant (p < 0.05) increase in ROS formation
O=C1[O][Pt]2([NH][C@@H]3CCCC[C@H]3[NH]2)[O]C1=O [OxPt, oxaliplatin] |  |  |  |  |  |  | IC50 ([1]; SW620, 72 h of exposition): 1.9 µM; IC50 [2]: 1.1 µM
COc1cc(O)c(CC=C(C)C)c(O)c1C(=O)/C=C/c1ccc(O)cc1 [XH, Xanthohumol] | 7.3 µM | 3.6 µM | 6.2 µM | 39.3 µM | strong pro-oxidative effect within the entire 24-hour incubation | marked increase | IC50 [9]: 3.6 to 7.3 µM; Caspase-3/7 activity, combination with IRT [6]: marked increase
